The values below come from paper PMC3070160 (Biochemistry, 2010).

Holding throughout (assay type): binding
In experiment [1] the target is T1, yCBS (yeast cystathionine β-synthase) (Saccharomyces cerevisiae, UniProt P32582).
T1 sequence (P32582 1-507): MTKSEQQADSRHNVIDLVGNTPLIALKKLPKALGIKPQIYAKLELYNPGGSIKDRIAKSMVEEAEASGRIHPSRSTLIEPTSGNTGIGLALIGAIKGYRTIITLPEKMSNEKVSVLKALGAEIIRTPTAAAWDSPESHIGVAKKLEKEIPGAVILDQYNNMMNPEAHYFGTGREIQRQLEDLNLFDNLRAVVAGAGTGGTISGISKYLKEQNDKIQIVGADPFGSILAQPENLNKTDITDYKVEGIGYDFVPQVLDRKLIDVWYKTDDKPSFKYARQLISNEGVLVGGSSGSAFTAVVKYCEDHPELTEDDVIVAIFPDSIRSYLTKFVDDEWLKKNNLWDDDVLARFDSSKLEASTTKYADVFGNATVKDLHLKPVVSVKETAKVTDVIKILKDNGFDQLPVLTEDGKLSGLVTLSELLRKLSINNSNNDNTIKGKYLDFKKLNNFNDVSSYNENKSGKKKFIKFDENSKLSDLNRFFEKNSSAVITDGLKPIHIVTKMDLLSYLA
Nature of the experiment: double-mixing stopped-flow, […] nm decay, koff/kon.

Experiment [2] has as its target T1, yCBS (yeast cystathionine β-synthase). The experiment is described as follows: stopped-flow, aminoacrylate formation at […] nm, hyperbolic fit of kobs.
Experiment [3] shares this target. The experiment is described as follows: UV-visible spectrum of enzyme as isolated. The conditions noted are these: internal aldimine with Lys53; covalent.

Each structure is given as a SMILES string.

`N[C@@H](CCS)C(=O)O` [L-homocysteine] had a Kd in experiment [1] of 0.37 ± 0.02 mM.

`N[C@@H](CO)C(=O)O` [L-serine]: the Kd in experiment [2] was determined as 14.4 ± 1.7 mM. Regarding `Cc1ncc(COP(=O)(O)O)c(C=O)c1O` [PLP], the “UV-visible spectrum of enzyme as isolated” value in experiment [3] is “protonated Schiff base (internal aldimine) between Lys53 in the active site and the PLP”.

The Kd is the concentration at which binding is half-saturated.
